The results in this text go back to patent publication US10183021B2, “sGC stimulators” (Ironwood Pharmaceuticals, Inc., priority 2013, dated 2019).

A value given as a limit tells only on which side of the number the result lay.

The EC50 is the concentration giving half of the maximal effect.

The target of this experiment is soluble guanylate cyclase (sGC) (Homo sapiens (Human), UniProt Q02108+Q02153). The experiment in a line: sGC-HEK-cGMP assay, new protocol with DETA-NONOate, LC/MS detection (Example 2C). The class given is cell-based. Conditions: read-out: Absolute EC50 (uM) - binned.
Chain of soluble guanylate cyclase (sGC) (Q02153 whole entry): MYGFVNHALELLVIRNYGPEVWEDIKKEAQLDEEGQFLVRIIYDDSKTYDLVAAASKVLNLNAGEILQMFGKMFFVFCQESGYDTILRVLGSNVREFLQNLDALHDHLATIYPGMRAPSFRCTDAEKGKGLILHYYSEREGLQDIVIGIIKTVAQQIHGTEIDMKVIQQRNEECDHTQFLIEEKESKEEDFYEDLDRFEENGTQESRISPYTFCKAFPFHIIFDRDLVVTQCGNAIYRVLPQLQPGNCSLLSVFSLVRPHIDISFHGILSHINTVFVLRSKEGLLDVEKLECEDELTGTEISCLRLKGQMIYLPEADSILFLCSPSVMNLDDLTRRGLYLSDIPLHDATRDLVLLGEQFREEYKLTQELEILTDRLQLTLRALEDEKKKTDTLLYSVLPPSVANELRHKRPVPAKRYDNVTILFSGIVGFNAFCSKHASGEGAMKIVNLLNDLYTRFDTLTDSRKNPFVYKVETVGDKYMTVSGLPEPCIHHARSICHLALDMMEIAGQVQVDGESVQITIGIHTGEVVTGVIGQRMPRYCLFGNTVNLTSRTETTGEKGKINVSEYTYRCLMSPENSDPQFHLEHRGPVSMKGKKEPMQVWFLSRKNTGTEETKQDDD
Chain of soluble guanylate cyclase (sGC) (Q02108 whole entry): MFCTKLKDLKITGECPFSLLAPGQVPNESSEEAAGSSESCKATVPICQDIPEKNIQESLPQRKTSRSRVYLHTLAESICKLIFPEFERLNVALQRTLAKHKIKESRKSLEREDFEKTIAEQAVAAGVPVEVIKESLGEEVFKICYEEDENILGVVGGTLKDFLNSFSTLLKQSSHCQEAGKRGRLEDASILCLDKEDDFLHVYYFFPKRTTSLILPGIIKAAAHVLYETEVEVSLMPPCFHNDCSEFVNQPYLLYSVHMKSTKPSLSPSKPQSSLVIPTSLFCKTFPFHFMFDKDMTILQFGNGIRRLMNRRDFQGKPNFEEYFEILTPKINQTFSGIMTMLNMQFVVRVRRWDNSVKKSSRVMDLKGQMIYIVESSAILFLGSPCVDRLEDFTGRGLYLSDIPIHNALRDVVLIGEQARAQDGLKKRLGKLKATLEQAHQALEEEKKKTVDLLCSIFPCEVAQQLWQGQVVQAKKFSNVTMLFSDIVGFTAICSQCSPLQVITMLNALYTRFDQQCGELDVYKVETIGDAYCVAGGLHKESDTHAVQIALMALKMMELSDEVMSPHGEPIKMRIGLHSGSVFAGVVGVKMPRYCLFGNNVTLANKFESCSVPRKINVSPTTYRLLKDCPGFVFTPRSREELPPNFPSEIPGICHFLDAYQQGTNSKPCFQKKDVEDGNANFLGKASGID

For the compound `CC(=O)c1cc(-c2ncc(F)c(O)n2)nn1Cc1ccccc1F` [Compound I-450], the EC50 is over 1 µM.
The value for `CC(=O)c1cc(-c2ncc(F)c(N(C)CC3(C(=O)O)CC3)n2)nn1Cc1ccccc1F` [Compound I-451] was 0.101 to 1 µM; that for `NS(=O)(=O)Nc1ccnc(-c2cc(-c3ccon3)n(Cc3ccccc3F)n2)n1` [Compound I-456] was 0.101 to 1 µM; that for `C[C@H]1CCCN(c2nc(-c3cc(C#N)n(Cc4ccccc4F)n3)ncc2F)[C@H]1C(=O)O` [Compound I-457] was 0.101 to 1 µM.
On to `O=C1C=C(O)CC(C(=O)Nc2ccnc(-c3cc(-c4ccon4)n(Cc4ccccc4F)n3)n2)C1` (centres unmarked) [Compound I-458], for which the EC50 was over 1 µM.
Turning to `O=C1CCC(C(=O)Nc2ccnc(-c3cc(-c4ccon4)n(Cc4ccccc4F)n3)n2)N1` (centres unmarked) [Compound I-459], the EC50 is over 1 µM.
On to `N#CC1(C(=O)Nc2nc(-c3cc(-c4ccon4)n(Cc4ccccc4F)n3)ncc2F)CC1` [Compound I-460], for which the EC50 is over 1 µM.
On to `O=C(Nc1ccnc(-c2cc(-c3ccon3)n(Cc3ccccc3F)n2)n1)C1(OCc2ccccc2)CC1` [Compound I-461], for which the EC50 is over 1 µM.
The figure for `CC(=O)c1cc(-c2ncc(F)c(NC(CO)CO)n2)nn1Cc1ccccc1F` [Compound I-462] is over 1 µM; for `CC(=O)c1cc(-c2ncc(F)c(N3CCC[C@H](C)[C@@H]3C(=O)O)n2)nn1Cc1ccccc1F` [Compound I-463] it is 0.101 to 1 µM.
With `O=C1CC(C(=O)Nc2ccnc(-c3cc(-c4ccon4)n(Cc4ccccc4F)n3)n2)CN1` (centres unmarked) [Compound I-464], the EC50 is 0.101 to 1 µM.
Regarding `O=C(Nc1nc(-c2cc(-c3ccon3)n(Cc3ccccc3F)n2)ncc1F)C(F)(F)F` [Compound I-465], the EC50 was in the range of 0.101 to 1 µM.
The figure for `Fc1ccccc1Cn1nc(-c2ncc(F)c(NCC(F)(F)F)n2)cc1-c1ccon1` [Compound I-466] is under 0.1 µM; for `O=C(O)C(O)(CNc1nc(-c2cc(-c3ccon3)n(Cc3ccccc3F)n2)ncc1F)C(F)(F)F` (centres unmarked) [Compound I-467] it is over 1 µM.
Consider `O=C(Nc1nc(-c2cc(-c3ccon3)n(Cc3ccccc3F)n2)ncc1N1CCOCC1)C(O)(C(F)(F)F)C(F)(F)F` [Compound I-468], for which the EC50 lay within 0.101 to 1 µM.
The figure for `O=C(Cc1nccs1)Nc1ccnc(-c2cc(-c3ccon3)n(Cc3ccccc3F)n2)n1` [Compound I-469] is 0.101 to 1 µM; for `O=C(N1CC(Nc2nc(-c3cc(-c4ccon4)n(Cc4ccccc4F)n3)ncc2F)C1)C1(O)CC1` [Compound I-470] it is under 0.1 µM; for `O=C(CC(F)(F)F)Nc1ccnc(-c2cc(-c3ccon3)n(Cc3ccccc3F)n2)n1` [Compound I-471] it is 0.101 to 1 µM.
Regarding `CS(=O)(=O)CS(=O)(=O)Nc1ccnc(-c2cc(-c3ccon3)n(Cc3ccccc3F)n2)n1` [Compound I-472], the EC50 was over 1 µM.
As for `N#Cc1cc(-c2ncc(F)c(NCC(O)(C(F)(F)F)C(F)(F)F)n2)nn1Cc1ccccc1F` [Compound I-474], the EC50 is over 1 µM.
Consider `CC(=O)O[C@@H](C(=O)Nc1ccnc(-c2cc(-c3ccon3)n(Cc3ccccc3F)n2)n1)C(F)(F)F` [Compound I-475], for which the EC50 fell in the range of 0.101 to 1 µM.
`O=C(O)c1cc(-c2ncc(F)c(NCC(O)(C(F)(F)F)C(F)(F)F)n2)nn1Cc1ccccc1F` [Compound I-476]: the EC50 is over 1 µM.
Regarding `O=C(Nc1nc(-c2cc(-c3ccon3)n(Cc3ccccc3F)n2)ncc1F)N1CCOCC1` [Compound I-477], the EC50 was over 1 µM.
The figure for `O=C(Nc1ccnc(-c2cc(-c3ccon3)n(Cc3ccccc3F)n2)n1)C1(O)CC1` [Compound I-478] is under 0.1 µM; for `COCCS(=O)(=O)Nc1ccnc(-c2cc(-c3ccon3)n(Cc3ccccc3F)n2)n1` [Compound I-479] it is 0.101 to 1 µM.
Take `CN(CC1(C(=O)O)CC1)c1nc(-c2cc(C#N)n(Cc3ccccc3F)n2)ncc1F` [Compound I-480]: the EC50 was 0.101 to 1 µM.
As to `CN(CC1(C(=O)O)CC1)c1nc(-c2cc(C(N)=O)n(Cc3ccccc3F)n2)ncc1F` [Compound I-481], the EC50 was over 1 µM.
For `O=C1OC(C(F)(F)F)CN1c1ccnc(-c2cc(-c3ccon3)n(Cc3ccccc3F)n2)n1` (centres unmarked) [Compound I-482], the EC50 is over 1 µM.
The figure for `O=[N+]([O-])c1cnc(-c2cc(-c3ccon3)n(Cc3ccccc3F)n2)nc1NCC(O)(C(F)(F)F)C(F)(F)F` [Compound I-483] is over 1 µM; for `Nc1cnc(-c2cc(-c3ccon3)n(Cc3ccccc3F)n2)nc1NCC(O)(C(F)(F)F)C(F)(F)F` [Compound I-484] it is 0.101 to 1 µM.
With `O=C1CC(Nc2nc(-c3cc(-c4ccon4)n(Cc4ccccc4F)n3)ncc2F)CN1` (centres unmarked) [Compound I-485], the EC50 was under 0.1 µM.
For `NS(=O)(=O)CCCC(=O)Nc1ccnc(-c2cc(-c3ccon3)n(Cc3ccccc3F)n2)n1` [Compound I-486], the EC50 is over 1 µM.
Take `CS(=O)(=O)CCNc1nc(-c2cc(-c3ccon3)n(Cc3ccccc3F)n2)ncc1F` [Compound I-487]: the EC50 is under 0.1 µM.
Turning to `OC(CNc1nc(-c2cc(-c3ccon3)n(Cc3cccc(F)c3F)n2)ncc1F)(C(F)(F)F)C(F)(F)F` [Compound I-488], the concentration giving a half-maximal response (EC50) lay in the range of 0.101 to 1 µM.
Turning to `O=C(O)C(O)(CNc1nc(-c2cc(-c3ccon3)n(Cc3cccc(F)c3F)n2)ncc1F)C(F)(F)F` (centres unmarked) [Compound I-489], the EC50 was over 1 µM.
Regarding `O=C(CC(O)(C(F)(F)F)C(F)(F)F)Nc1ccnc(-c2cc(-c3ccon3)n(Cc3ccccc3F)n2)n1` [Compound I-490], the EC50 was 0.101 to 1 µM.
`O=S(=O)(Cc1ccc(F)cc1)Nc1ccnc(-c2cc(-c3ccon3)n(Cc3ccccc3F)n2)n1` [Compound I-491]: the EC50 was in the range of 0.101 to 1 µM.
The figure for `O=C1Nc2nc(-c3cc(-c4ccon4)n(Cc4ccccc4F)n3)ncc2OC1(C(F)(F)F)C(F)(F)F` [Compound I-492] is 0.101 to 1 µM; for `O=C(NC1CC1)C(Nc1nc(-c2cc(-c3ccon3)n(Cc3ccccc3F)n2)ncc1F)C(F)(F)F` (centres unmarked) [Compound I-493] it is 0.101 to 1 µM.
As to `CC1(C)CCN(c2ccnc(-c3cc(-c4ccon4)n(Cc4ccccc4F)n3)n2)C1=O` [Compound I-494], the EC50 was in the range of 0.101 to 1 µM.
With `[2H]C([2H])(O)C([2H])([2H])Nc1nc(-c2cc(-c3ccon3)n(Cc3ccccc3F)n2)ncc1F` [Compound I-495], the EC50 was under 0.1 µM.
Consider `Cc1nnc(CNc2nc(-c3cc(-c4ccon4)n(Cc4ccccc4F)n3)ncc2F)o1` [Compound I-496], for which the EC50 was under 0.1 µM.
In the case of `CC(=O)OCC(=O)Nc1ccnc(-c2cc(-c3ccon3)n(Cc3ccccc3F)n2)n1` [Compound I-497], the EC50 lay in the range of 0.101 to 1 µM.
On to `CC(=O)OCC(=O)Nc1nc(-c2cc(-c3ccon3)n(Cc3ccccc3F)n2)ncc1F` [Compound I-498], for which the EC50 fell in the range of 0.101 to 1 µM.
`O=C(CO)Nc1ccnc(-c2cc(-c3ccon3)n(Cc3ccccc3F)n2)n1` [Compound I-499]: the EC50 was over 1 µM.
Consider `OC(CNc1ccnc(-c2cc(-c3ccon3)n(Cc3ccccc3F)n2)n1)(C(F)(F)F)C(F)(F)F` [Compound I-500], for which the EC50 lay within 0.101 to 1 µM.
On to `O=C1CCC(C(F)(F)F)N1c1nc(-c2cc(-c3ccon3)n(Cc3ccccc3F)n2)ncc1F` (centres unmarked) [Compound I-501], for which the EC50 was over 1 µM.
Take `OCC1(Nc2nc(-c3cc(-c4ccon4)n(Cc4ccccc4F)n3)ncc2F)CC1` [Compound I-502]: the EC50 lay within 0.101 to 1 µM.
Regarding `O=S1(=O)CCCN1c1nc(-c2cc(-c3ccon3)n(Cc3ccccc3F)n2)ncc1F` [Compound I-503], the EC50 is 0.101 to 1 µM.
The value for `O=C1OCC(C(F)(F)F)N1c1ccnc(-c2cc(-c3ccon3)n(Cc3ccccc3F)n2)n1` (centres unmarked) [Compound I-504] was over 1 µM; that for `CC(C)S(=O)(=O)Nc1nc(-c2cc(-c3ccon3)n(Cc3ccccc3F)n2)ncc1F` [Compound I-505] was 0.101 to 1 µM; that for `Oc1nc(-c2cc(-c3ccon3)n(CCC(F)(F)F)n2)ncc1F` [Compound I-507] was over 1 µM.
With `CC(C)C(Nc1nc(-c2cc(-c3ccon3)n(Cc3ccccc3F)n2)ncc1F)C(=O)NC1CC1` (centres unmarked) [Compound I-508], the EC50 was under 0.1 µM.
`Fc1ccccc1Cn1nc(-c2ncc(F)c(NCCSC(F)(F)F)n2)cc1-c1ccon1` [Compound I-509]: the EC50 is under 0.1 µM.
Take `COC(=O)CS(=O)(=O)Nc1ccnc(-c2cc(-c3ccon3)n(Cc3ccccc3F)n2)n1` [Compound I-510]: the EC50 was in the range of 0.101 to 1 µM.
Take `NC(=O)CNc1nc(-c2cc(-c3ccon3)n(CCC(F)(F)F)n2)ncc1F` [Compound I-511]: the EC50 was over 1 µM.
As to `CC1(C)CCC(=O)N1c1nc(-c2cc(-c3ccon3)n(Cc3ccccc3F)n2)ncc1F` [Compound I-512], the EC50 was over 1 µM.
In the case of `Nc1nc(-c2cc(-c3ccon3)n(CCC(F)(F)F)n2)ncc1F` [Compound I-513], the EC50 was over 1 µM.
`O=S(=O)(CCNc1nc(-c2cc(-c3ccon3)n(Cc3ccccc3F)n2)ncc1F)C(F)(F)F` [Compound I-514]: the EC50 was under 0.1 µM.
The value for `NC(=O)C1(CNc2nc(-c3cc(-c4ccon4)n(Cc4ccccc4F)n3)ncc2F)CC1` [Compound I-515] was under 0.1 µM.
For `OC(CNc1nc(-c2cc(-c3ccon3)n(CCC(F)(F)F)n2)ncc1F)(C(F)(F)F)C(F)(F)F` [Compound I-516], the EC50 is over 1 µM.
On to `CCN(CC)c1nc(-c2cc(-c3ccon3)n(CCC(F)(F)F)n2)ncc1F` [Compound I-517], for which the EC50 was over 1 µM.
On to `NC(CNc1nc(-c2cc(-c3ccon3)n(Cc3ccccc3F)n2)ncc1F)C(F)(F)F` (centres unmarked) [Compound I-518], for which the EC50 was under 0.1 µM.
As to `CC(C)(C)OC(=O)NCC(=O)Nc1ccnc(-c2cc(-c3ccon3)n(Cc3ccccc3F)n2)n1` [Compound I-519], the EC50 was 0.101 to 1 µM.
For `NCC(=O)Nc1ccnc(-c2cc(-c3ccon3)n(Cc3ccccc3F)n2)n1` [Compound I-520], the EC50 lay within 0.101 to 1 µM.
In the case of `OCC(F)(F)CNc1nc(-c2cc(-c3ccon3)n(Cc3ccccc3F)n2)ncc1F` [Compound I-521], the EC50 was under 0.1 µM.
`NC(=O)C(O)(CNc1nc(-c2cc(-c3ccon3)n(Cc3cccc(F)c3F)n2)ncc1F)C(F)(F)F` (centres unmarked) [Compound I-522]: the EC50 was under 0.1 µM.
Turning to `CN(CC1(C(=O)O)CC1)c1nc(-c2cc(-c3ccon3)n(CCC(F)(F)F)n2)ncc1F` [Compound I-523], the EC50 is over 1 µM.
